# In patent US20250230163A1, “SOLID FORMS OF HIV INTEGRASE INHIBITORS” (Gilead Sciences, Inc., priority 2023, published 2025):
# Columns and labels:
# [1] = Hygroscopicity by dynamic vapor sorption (DVS); format: physicochemical; conditions: for solid form post DVS experiment: after sorption/desorption cycle up to 95% RH at 25° C.; for water absorbed (dynamic vapor sorption): up to 95% RH at 25° C.
# Protocol: Hygroscopicity was studied using dynamic vapor sorption (DVS, TA Q5000 SA, TA Instruments, New Castle, DE or DVS, DVS Intrinsic, Surface Measurement Systems, London, UK). A sample (1-20 mg) was placed in an aluminum DVS pan and loaded on the sample side of the twin pan balance. The water sorption and desorption were studied as a function of relative humidity (RH) at 25° C. In 10% RH increments, the relative humidity was increased from 5% RH to 95% RH and then decreased back to 5%. […] Data analysis was performed using Universal Analysis 2000 Version 4.7A (TA Instruments, New Castle, DE) for TA DVS runs and Microsoft Excel for SMS DVS runs.
# [2] = Physical form stability on drying under ambient conditions; format: physicochemical
# Excerpt: Compound of Formula I, Form II is a metastable methanol solvated phase. It was isolated when compound of Formula I, Form I was slurried in methanol for about 60 days and identified by x-ray of the wet cake. […] Compound of Formula I, Form III was also made when Form II was dried under ambient conditions.
Structure (SMILES),solid form post DVS experiment [1],water absorbed (dynamic vapor sorption) [1],form conversion upon drying [2]
"O=C(NCc1c(F)cc(F)cc1F)c1cn2c(c(O)c1=O)C(=O)N1CCCC[C@H]2C1 [Compound of Formula I, Form I, (7S)-12-hydroxy-1,11-dioxo-N-(2,4,6-trifluorobenzyl)-1,4,5,6,7,11-hexahydro-3H-2,7-methanopyrido[1,2-a][1,4]diazonine-10-carboxamide]",not have changed form,about 0.097%,–
"O=C(NCc1c(F)cc(F)cc1F)c1cn2c(c(O)c1=O)C(=O)N1CCCC[C@H]2C1 [Compound of Formula I, Form IV, (7S)-12-hydroxy-1,11-dioxo-N-(2,4,6-trifluorobenzyl)-1,4,5,6,7,11-hexahydro-3H-2,7-methanopyrido[1,2-a][1,4]diazonine-10-carboxamide]",not have changed form,about 3.5%,–
"O=C(NCc1c(F)cc(F)cc1F)c1cn2c(c(O)c1=O)C(=O)N1CCCC[C@H]2C1 [Compound of Formula I, Form III, (7S)-12-hydroxy-1,11-dioxo-N-(2,4,6-trifluorobenzyl)-1,4,5,6,7,11-hexahydro-3H-2,7-methanopyrido[1,2-a][1,4]diazonine-10-carboxamide]",not have changed form,about 0.87%,–
"O=C(NCc1c(F)cc(F)cc1F)c1cn2c(c(O)c1=O)C(=O)N1CCCC[C@H]2C1 [Compound of Formula I, Form II, (7S)-12-hydroxy-1,11-dioxo-N-(2,4,6-trifluorobenzyl)-1,4,5,6,7,11-hexahydro-3H-2,7-methanopyrido[1,2-a][1,4]diazonine-10-carboxamide]",–,–,"convert to compound of Formula I, Form III"
